Experimental data as given in PMC12621043, “Un-LOK-ing a New Approach for Conformational Selective Targeting of STK10 (LOK)” (ACS Medicinal Chemistry Letters, 2025).
Where “and” joins values, the source holds several entries; their conditions need not be identical. Identical values can stand only once.

Assays:
SLK = SLK (Homo sapiens, UniProt Q9H2G2); test: DSF Tm panel; format: binding; parameters: purchased in-house DSF kinase panel (SGC-style construct names; the trailing letter is the construct ID); details: 10 μM compound
EPHA2 (EPHA2A) = molecular target: T1, EPHA2 (EPHA2A) (Homo sapiens, UniProt P29317); test: DSF Tm panel; format: binding; details: 10 μM compound
T1 construct: purchased in-house DSF kinase panel (SGC-style construct names; the trailing letter is the construct ID)
T1 sequence (P29317 596-900): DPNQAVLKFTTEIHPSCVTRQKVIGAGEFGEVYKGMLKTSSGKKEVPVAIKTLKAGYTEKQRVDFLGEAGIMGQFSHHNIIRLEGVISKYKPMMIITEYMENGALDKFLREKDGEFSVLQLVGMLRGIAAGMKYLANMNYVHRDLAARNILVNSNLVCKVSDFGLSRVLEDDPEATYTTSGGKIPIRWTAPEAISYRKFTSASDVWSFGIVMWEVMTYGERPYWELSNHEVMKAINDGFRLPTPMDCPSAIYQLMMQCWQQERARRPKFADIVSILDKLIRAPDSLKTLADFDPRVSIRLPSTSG

CAMK2DA = molecular target: T2, CAMK2DA (Homo sapiens, UniProt Q13557); test: DSF Tm panel; format: binding; details: 10 μM compound
T2 construct: purchased in-house DSF kinase panel (SGC-style construct names; the trailing letter is the construct ID)

STK17BA = molecular target: T3, STK17BA (Homo sapiens, UniProt O94768); test: DSF Tm panel; format: binding; details: 10 μM compound
T3 construct: purchased in-house DSF kinase panel (SGC-style construct names; the trailing letter is the construct ID)
T3 sequence (O94768 25-329): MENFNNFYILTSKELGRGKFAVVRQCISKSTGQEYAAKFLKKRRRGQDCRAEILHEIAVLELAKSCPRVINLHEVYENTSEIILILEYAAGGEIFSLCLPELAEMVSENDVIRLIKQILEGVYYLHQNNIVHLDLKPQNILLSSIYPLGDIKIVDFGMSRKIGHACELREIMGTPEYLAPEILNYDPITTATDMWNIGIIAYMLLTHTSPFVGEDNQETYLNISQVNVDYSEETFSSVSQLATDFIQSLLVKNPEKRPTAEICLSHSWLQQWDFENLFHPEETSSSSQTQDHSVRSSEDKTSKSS

GSG2A = molecular target: T4, GSG2A (Homo sapiens, UniProt Q8TF76); test: DSF Tm panel; format: binding; details: 10 μM compound
T4 construct: purchased in-house DSF kinase panel (SGC-style construct names; the trailing letter is the construct ID)
T4 sequence (Q8TF76 465-798): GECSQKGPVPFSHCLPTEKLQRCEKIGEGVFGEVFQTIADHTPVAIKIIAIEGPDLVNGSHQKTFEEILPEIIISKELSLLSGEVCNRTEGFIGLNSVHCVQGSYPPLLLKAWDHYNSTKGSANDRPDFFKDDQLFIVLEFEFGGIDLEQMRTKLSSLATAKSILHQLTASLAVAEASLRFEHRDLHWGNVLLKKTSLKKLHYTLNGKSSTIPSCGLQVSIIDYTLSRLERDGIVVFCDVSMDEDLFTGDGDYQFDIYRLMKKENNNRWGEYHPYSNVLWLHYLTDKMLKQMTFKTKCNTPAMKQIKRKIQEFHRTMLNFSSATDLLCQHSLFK

CDC42BPAA = test: DSF Tm panel; format: binding; details: 10 μM compound
STK10 [1] = molecular target: T5, STK10 (Homo sapiens, UniProt O94804); test: DSF Tm panel; format: binding; details: 10 μM compound
T5 construct: purchased in-house DSF kinase panel (SGC-style construct names; the trailing letter is the construct ID)

NEK1A = molecular target: T6, NEK1A (Homo sapiens, UniProt Q96PY6); test: DSF Tm panel; format: binding; details: 10 μM compound
T6 construct: purchased in-house DSF kinase panel (SGC-style construct names; the trailing letter is the construct ID)
T6 sequence (Q96PY6 1-328): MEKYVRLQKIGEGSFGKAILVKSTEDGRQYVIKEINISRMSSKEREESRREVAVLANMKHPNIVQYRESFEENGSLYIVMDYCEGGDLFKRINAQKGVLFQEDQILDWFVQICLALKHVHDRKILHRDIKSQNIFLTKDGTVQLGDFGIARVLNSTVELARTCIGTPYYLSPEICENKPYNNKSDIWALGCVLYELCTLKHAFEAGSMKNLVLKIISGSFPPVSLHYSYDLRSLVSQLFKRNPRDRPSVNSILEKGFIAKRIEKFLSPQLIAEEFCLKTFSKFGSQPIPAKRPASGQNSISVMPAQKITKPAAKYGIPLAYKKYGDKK

EPHA7A = molecular target: T7, EPHA7A (Homo sapiens, UniProt Q15375); test: DSF Tm panel; format: binding; details: 10 μM compound
T7 construct: purchased in-house DSF kinase panel (SGC-style construct names; the trailing letter is the construct ID)

MAPK13A = molecular target: T8, MAPK13A (Homo sapiens, UniProt O15264); test: DSF Tm panel; format: binding; details: 10 μM compound
T8 construct: purchased in-house DSF kinase panel (SGC-style construct names; the trailing letter is the construct ID)
T8 sequence (O15264 1-365): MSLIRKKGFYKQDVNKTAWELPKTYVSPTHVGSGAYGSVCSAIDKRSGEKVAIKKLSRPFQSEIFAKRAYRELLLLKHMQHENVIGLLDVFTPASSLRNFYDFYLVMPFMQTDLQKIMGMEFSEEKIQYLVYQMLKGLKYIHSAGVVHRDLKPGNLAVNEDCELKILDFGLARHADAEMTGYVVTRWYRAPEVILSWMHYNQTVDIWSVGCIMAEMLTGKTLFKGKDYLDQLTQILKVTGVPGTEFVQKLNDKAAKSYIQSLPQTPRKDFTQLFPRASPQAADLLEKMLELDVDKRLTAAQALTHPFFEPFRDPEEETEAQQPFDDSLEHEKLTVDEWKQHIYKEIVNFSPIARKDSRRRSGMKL

FESA = molecular target: T9, FESA (Homo sapiens, UniProt P07332); test: DSF Tm panel; format: binding; details: 10 μM compound
T9 construct: purchased in-house DSF kinase panel (SGC-style construct names; the trailing letter is the construct ID)

MAPK1A = molecular target: T10, MAPK1A (Homo sapiens, UniProt P28482); test: DSF Tm panel; format: binding; details: 10 μM compound
T10 construct: purchased in-house DSF kinase panel (SGC-style construct names; the trailing letter is the construct ID)

CAMKK2B = molecular target: T11, CAMKK2B (Homo sapiens, UniProt Q96RR4); test: DSF Tm panel; format: binding; details: 10 μM compound
T11 construct: purchased in-house DSF kinase panel (SGC-style construct names; the trailing letter is the construct ID)

AKT3A = molecular target: T12, AKT3A (Homo sapiens, UniProt Q9Y243); test: DSF Tm panel; format: binding; details: 10 μM compound
T12 construct: purchased in-house DSF kinase panel (SGC-style construct names; the trailing letter is the construct ID)

AAK1 (AAK1A) = molecular target: T13, AAK1 (AAK1A) (Homo sapiens, UniProt Q2M2I8); test: DSF Tm panel; format: binding; details: 10 μM compound
T13 construct: purchased in-house DSF kinase panel (SGC-style construct names; the trailing letter is the construct ID)

STK10 [2] = molecular target: T5, STK10; test: PhosphoSens in vitro activity assay; format: biochemical; details: ATP 160 μM

T11 sequence (Q96RR4 161-449): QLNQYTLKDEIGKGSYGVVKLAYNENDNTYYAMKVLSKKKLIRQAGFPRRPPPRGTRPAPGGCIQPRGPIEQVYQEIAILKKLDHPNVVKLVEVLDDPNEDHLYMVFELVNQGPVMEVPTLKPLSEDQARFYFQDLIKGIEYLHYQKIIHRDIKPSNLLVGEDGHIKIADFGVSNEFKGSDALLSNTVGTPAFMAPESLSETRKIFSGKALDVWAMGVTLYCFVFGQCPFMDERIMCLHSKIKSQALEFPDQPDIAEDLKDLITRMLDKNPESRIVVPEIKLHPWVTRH
T10 sequence (P28482 whole entry): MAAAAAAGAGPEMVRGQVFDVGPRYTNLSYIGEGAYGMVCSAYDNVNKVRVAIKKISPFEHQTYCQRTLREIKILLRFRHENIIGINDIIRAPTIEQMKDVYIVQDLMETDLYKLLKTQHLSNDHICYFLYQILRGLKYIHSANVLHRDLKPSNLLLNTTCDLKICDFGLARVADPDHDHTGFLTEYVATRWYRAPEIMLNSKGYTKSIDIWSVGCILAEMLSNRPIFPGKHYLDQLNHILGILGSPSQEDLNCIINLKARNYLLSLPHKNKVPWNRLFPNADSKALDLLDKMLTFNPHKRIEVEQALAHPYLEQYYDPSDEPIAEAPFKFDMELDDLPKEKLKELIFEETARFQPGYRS
T12 sequence (Q9Y243 148-479): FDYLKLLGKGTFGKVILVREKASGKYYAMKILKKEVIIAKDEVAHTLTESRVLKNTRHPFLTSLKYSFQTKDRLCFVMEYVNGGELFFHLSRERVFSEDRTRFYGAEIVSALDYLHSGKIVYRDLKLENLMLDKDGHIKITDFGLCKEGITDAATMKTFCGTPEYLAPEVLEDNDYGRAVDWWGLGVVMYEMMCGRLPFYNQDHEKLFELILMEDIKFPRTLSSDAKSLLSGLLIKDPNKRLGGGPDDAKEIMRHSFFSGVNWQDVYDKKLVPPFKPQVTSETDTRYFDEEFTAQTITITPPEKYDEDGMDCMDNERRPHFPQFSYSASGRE
T9 sequence (P07332 whole entry): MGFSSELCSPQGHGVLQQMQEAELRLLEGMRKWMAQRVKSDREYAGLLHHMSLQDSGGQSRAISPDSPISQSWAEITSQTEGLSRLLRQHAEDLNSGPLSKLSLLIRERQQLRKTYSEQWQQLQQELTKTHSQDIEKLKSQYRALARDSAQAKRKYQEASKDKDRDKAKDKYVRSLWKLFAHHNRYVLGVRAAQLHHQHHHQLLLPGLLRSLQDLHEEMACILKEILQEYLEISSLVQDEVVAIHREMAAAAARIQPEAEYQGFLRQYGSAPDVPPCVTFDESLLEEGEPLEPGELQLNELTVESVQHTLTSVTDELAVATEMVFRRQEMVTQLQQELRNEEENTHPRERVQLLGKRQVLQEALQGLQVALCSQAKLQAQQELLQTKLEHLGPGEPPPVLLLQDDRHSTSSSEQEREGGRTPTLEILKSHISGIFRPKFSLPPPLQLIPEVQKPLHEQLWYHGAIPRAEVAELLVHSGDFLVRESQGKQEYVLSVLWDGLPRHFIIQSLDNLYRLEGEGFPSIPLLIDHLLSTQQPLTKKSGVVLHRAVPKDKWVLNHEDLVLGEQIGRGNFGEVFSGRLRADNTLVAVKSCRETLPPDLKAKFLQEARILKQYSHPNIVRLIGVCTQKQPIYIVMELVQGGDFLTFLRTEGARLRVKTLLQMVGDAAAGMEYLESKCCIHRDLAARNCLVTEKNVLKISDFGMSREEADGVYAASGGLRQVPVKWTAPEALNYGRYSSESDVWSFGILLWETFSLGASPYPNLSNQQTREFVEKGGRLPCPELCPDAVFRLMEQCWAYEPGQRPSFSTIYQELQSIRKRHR
T2 sequence (Q13557 11-309): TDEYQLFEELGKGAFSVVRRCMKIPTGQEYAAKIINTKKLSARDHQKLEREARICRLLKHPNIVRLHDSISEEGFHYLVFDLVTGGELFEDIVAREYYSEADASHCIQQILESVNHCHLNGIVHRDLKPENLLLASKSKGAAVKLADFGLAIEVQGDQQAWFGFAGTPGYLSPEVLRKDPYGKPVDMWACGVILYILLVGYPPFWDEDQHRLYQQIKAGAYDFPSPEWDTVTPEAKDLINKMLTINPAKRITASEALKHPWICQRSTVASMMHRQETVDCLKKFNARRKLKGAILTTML
T5 sequence (O94804 18-317 limits assumed): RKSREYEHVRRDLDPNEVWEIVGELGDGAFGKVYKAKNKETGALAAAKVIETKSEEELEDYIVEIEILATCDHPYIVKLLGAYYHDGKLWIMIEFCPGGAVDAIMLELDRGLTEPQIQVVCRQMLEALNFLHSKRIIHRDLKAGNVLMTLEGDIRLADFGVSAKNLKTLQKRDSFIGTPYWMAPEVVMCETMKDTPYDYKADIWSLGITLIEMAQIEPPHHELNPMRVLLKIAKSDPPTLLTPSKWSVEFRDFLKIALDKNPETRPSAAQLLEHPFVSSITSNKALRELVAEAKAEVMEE
T13 sequence (Q2M2I8 27-365): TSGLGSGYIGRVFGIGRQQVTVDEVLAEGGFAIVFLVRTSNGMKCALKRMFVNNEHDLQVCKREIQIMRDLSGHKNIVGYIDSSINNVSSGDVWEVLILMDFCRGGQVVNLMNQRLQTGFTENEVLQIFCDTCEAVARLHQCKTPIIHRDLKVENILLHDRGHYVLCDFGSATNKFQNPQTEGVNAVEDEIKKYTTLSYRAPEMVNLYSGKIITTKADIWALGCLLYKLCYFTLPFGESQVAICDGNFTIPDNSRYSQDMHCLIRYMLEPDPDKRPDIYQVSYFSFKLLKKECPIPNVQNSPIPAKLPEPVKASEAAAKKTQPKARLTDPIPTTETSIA
T7 sequence (Q15375 590-899): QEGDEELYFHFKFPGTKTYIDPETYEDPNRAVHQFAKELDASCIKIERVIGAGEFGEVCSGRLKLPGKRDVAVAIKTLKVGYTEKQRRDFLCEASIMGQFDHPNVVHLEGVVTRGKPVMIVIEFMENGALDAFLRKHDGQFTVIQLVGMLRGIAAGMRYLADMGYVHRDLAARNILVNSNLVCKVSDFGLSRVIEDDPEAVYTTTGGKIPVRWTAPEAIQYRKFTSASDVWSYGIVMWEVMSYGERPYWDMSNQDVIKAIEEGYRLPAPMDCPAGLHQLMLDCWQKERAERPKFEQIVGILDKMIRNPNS

O=C(NCc1ccc(Cl)cc1F)Nc1ccc2cc1OCCOCCNc1ccn3ncc-2c3n1 [compound 21]
ΔTm at 10 µM (SLK): 5.7 °C | ΔTm at 10 µM (EPHA2 (EPHA2A)): 0.5 °C | ΔTm at 10 µM (CAMK2DA): 0.8 °C | ΔTm at 10 µM (STK17BA): 2.7 °C | ΔTm at 10 µM (GSG2A): 0.1 °C | ΔTm CDC42BPAA (CDC42BPAA): 0,4 °C | ΔTm at 10 µM (STK10 [1]): 7.3 °C | ΔTm at 10 µM (NEK1A): 0.7 °C | ΔTm at 10 µM (EPHA7A): 1.9 °C | ΔTm at 10 µM (MAPK13A): 0.6 °C | ΔTm at 10 µM (FESA): 0.6 °C | ΔTm at 10 µM (MAPK1A): 0.3 °C | ΔTm at 10 µM (CAMKK2B): 3.5 °C | ΔTm at 10 µM (AKT3A): -0.3 °C | ΔTm at 10 µM (AAK1 (AAK1A)): 7.1 °C | IC50 (STK10 [2]): 2620 ± 610 nM

Cc1cc(Cl)ccc1CNC(=O)Nc1ccc2cc1OCCOCCNc1ccn3ncc-2c3n1 [compound 23]
ΔTm at 10 µM (SLK): 3.5 °C | ΔTm at 10 µM (EPHA2 (EPHA2A)): 0.5 °C | ΔTm at 10 µM (CAMK2DA): 1.7 °C | ΔTm at 10 µM (STK17BA): 3.3 °C | ΔTm at 10 µM (GSG2A): -0.1 °C | ΔTm CDC42BPAA (CDC42BPAA): 0,6 °C | ΔTm at 10 µM (STK10 [1]): 11.1 °C | ΔTm at 10 µM (NEK1A): 0.9 °C | ΔTm at 10 µM (EPHA7A): 1 °C | ΔTm at 10 µM (MAPK13A): 0.3 °C | ΔTm at 10 µM (FESA): 0.5 °C | ΔTm at 10 µM (MAPK1A): 0.8 °C | ΔTm at 10 µM (CAMKK2B): 1.9 °C | ΔTm at 10 µM (AKT3A): 0.9 °C | ΔTm at 10 µM (AAK1 (AAK1A)): 6.5 °C | IC50 (STK10 [2]): 850 nM and < 1000 nM

Cc1cc(Br)ccc1CNC(=O)Nc1ccc2cc1OCCOCCNc1ccn3ncc-2c3n1 [compound 24]
ΔTm at 10 µM (SLK): 2.9 °C | ΔTm at 10 µM (EPHA2 (EPHA2A)): 0.2 °C | ΔTm at 10 µM (CAMK2DA): 2.2 °C | ΔTm at 10 µM (STK17BA): 3.6 °C | ΔTm at 10 µM (GSG2A): 0 °C | ΔTm CDC42BPAA (CDC42BPAA): 0,7 °C | ΔTm at 10 µM (STK10 [1]): 8.3 °C | ΔTm at 10 µM (NEK1A): -0.4 °C | ΔTm at 10 µM (EPHA7A): 2 °C | ΔTm at 10 µM (MAPK13A): -0.4 °C | ΔTm at 10 µM (FESA): 0.5 °C | ΔTm at 10 µM (MAPK1A): 0.7 °C | ΔTm at 10 µM (CAMKK2B): 0.7 °C | ΔTm at 10 µM (AKT3A): 0.3 °C | ΔTm at 10 µM (AAK1 (AAK1A)): 4 °C | IC50 (STK10 [2]): 4620 ± 880 nM

Cc1ccc(F)cc1CNC(=O)Nc1ccc2cc1OCCOCCNc1ccn3ncc-2c3n1 [compound 26]
ΔTm at 10 µM (SLK): 3.2 °C | ΔTm at 10 µM (EPHA2 (EPHA2A)): 0.3 °C | ΔTm at 10 µM (CAMK2DA): 2.4 °C | ΔTm at 10 µM (STK17BA): 3.1 °C | ΔTm at 10 µM (GSG2A): 0.6 °C | ΔTm CDC42BPAA (CDC42BPAA): 0,2 °C | ΔTm at 10 µM (STK10 [1]): 9.2 °C | ΔTm at 10 µM (NEK1A): -0.4 °C | ΔTm at 10 µM (EPHA7A): 2 °C | ΔTm at 10 µM (MAPK13A): -0.2 °C | ΔTm at 10 µM (FESA): 0.3 °C | ΔTm at 10 µM (MAPK1A): 0.8 °C | ΔTm at 10 µM (CAMKK2B): 0.9 °C | ΔTm at 10 µM (AKT3A): 1.8 °C | ΔTm at 10 µM (AAK1 (AAK1A)): 5 °C | IC50 (STK10 [2]): 3530 ± 570 nM

COc1ccc(CNC(=O)Nc2ccc3cc2OCCOCCNc2ccn4ncc-3c4n2)cc1 [compound 31]
ΔTm at 10 µM (EPHA2 (EPHA2A)): 0.4 °C | ΔTm at 10 µM (CAMK2DA): 2.8 °C | ΔTm at 10 µM (STK17BA): 2.6 °C | ΔTm at 10 µM (GSG2A): 1.2 °C | ΔTm CDC42BPAA (CDC42BPAA): 0,0 °C | ΔTm at 10 µM (STK10 [1]): 6 °C | ΔTm STK10 (STK10 [1]; 10 µM): 6,7 °C | ΔTm at 10 µM (NEK1A): -0.4 °C | ΔTm at 10 µM (EPHA7A): 1.8 °C | ΔTm at 10 µM (MAPK13A): -1.3 °C | ΔTm at 10 µM (FESA): 0.8 °C | ΔTm at 10 µM (MAPK1A): 0.9 °C | ΔTm at 10 µM (CAMKK2B): 1.8 °C | ΔTm at 10 µM (AKT3A): 1.6 °C | ΔTm at 10 µM (AAK1 (AAK1A)): 6.7 °C | IC50 (STK10 [2]): 2740 ± 470 nM

CN1CCN(C(=O)Nc2ccc3cc2OCCOCCNc2ccn4ncc-3c4n2)CC1 [compound 35]
ΔTm at 10 µM (SLK): 3.3 °C | ΔTm at 10 µM (EPHA2 (EPHA2A)): 0.6 °C | ΔTm at 10 µM (CAMK2DA): 0.5 °C | ΔTm at 10 µM (STK17BA): 3.4 °C | ΔTm at 10 µM (GSG2A): 1.3 °C | ΔTm CDC42BPAA (CDC42BPAA): -0,6 °C | ΔTm at 10 µM (STK10 [1]): 3.7 °C | ΔTm at 10 µM (NEK1A): 0.4 °C | ΔTm at 10 µM (EPHA7A): -1.4 °C | ΔTm at 10 µM (MAPK13A): 0.4 °C | ΔTm at 10 µM (FESA): -0.2 °C | ΔTm at 10 µM (MAPK1A): 0.3 °C | ΔTm at 10 µM (CAMKK2B): 2.9 °C | ΔTm at 10 µM (AKT3A): 0 °C | ΔTm at 10 µM (AAK1 (AAK1A)): 7.7 °C
